Read-outs that look alike come from different tables or passages of the source. Each block holds one molecule with its values, some of them ahead of it.
Experiments:
[1] = tested on: P. aeruginosa W.T. PAO1; test: Minimum inhibitory concentration (MIC), broth microdilution; type: cell-based, Pseudomonas aeruginosa; settings: 37° C., 24 h
Procedure: The minimum inhibitory concentration (MIC) of the antimicrobial agents was measured using the broth microdilution technique. A bacterial culture medium with 10^5-10^6 CFU mL^−1 was prepared freshly in Mueller-Hinton (MH) broth and added to a 2-fold serial dilution of antimicrobial agents in 96-well microplates. A cell-only control and a medium-only control were also included in the same microplate. The 96-well microplates were incubated at 37° C. for 24 h. MIC was determined to be the concentration of antimicrobial agents at which the optical density (OD600) was equal to that of a medium-only control using a multimode microplate reader (VICTOR™ X4, Perkin-Elmer). The MIC can also be recorded as the lowest concentration preventing visible bacterial growth after 24 h.

[2] = tested on: P. aeruginosa biofilm; test: Biofilm dispersal assay, crystal violet staining of biofilm biomass; type: cell-based, Pseudomonas aeruginosa PAO1
Procedure: (§1) A Pseudomonas aeruginosa PAO1 inoculum was freshly prepared by inoculating one colony in 10 mL of LB broth and incubating on an orbital shaker at 220 rpm at 37° C. for 16-17 h. The bacterium culture medium was diluted 200-fold to an optical density at 600 nm (OD600) between 0.003-0.005 in M9 minimal medium (containing 48 mM Na2HPO4, 22 mM KH2PO4, 9 mM NaCl, 19 mM NH4Cl, 2 mM MgSO4, 0.1 mM CaCl2), and 20 mM glucose, pH 7.0). This medium was freshly prepared for each experiment.
For the biofilm inhibition assay, various treatment formulations were added to the 24-well microtiter plates simultaneously as cell culture media placement. The plates were incubated on an orbital shaker at 180 rpm for 6 h incubation at 37° C. For this 6 h biofilm dispersal assay, the plates were incubated on an orbital shaker at 180 rpm for 6 h at 37° C. for biofilm formation. Planktonic bacteria were removed, and 1 mL of fresh M9 minimal medium was added to each well, followed by each treatment addition. […]
The concentrations of each component used for the treatments would be based on their individual effects on biofilm dispersal. […]
(§2) The biofilm biomass was analysed by crystal violet (CV) staining. The biofilm on each well surface of the plates was washed once with 1 mL PBS before CV staining. 1 mL of 0.1% CV solution made by a 1:20 dilution of 2% CV aqueous solution in PBS. The CV stained biofilm was washed twice with 1 mL PBS after 20 min incubation. The remaining CV stained biofilm was dissolved in 33% glacial acetic acid and quantified by measuring the absorbance at 550 nm (OD550) using a multimode microplate reader (VICTOR™ X4, Perkin-Elmer). All biofilm assays were performed in two independent experiments.
(§3) Biofilm dispersal and bacterial viability assays were conducted as described above using samples set out in Table 2. A graph illustrating the effects of different POEGA-b-PPFPA conjugated formulations on biofilm dispersal are shown in FIG. 13 and on biofilm cell survival are shown in FIG. 14.

[3] = tested on: P. aeruginosa biofilm; test: Biofilm formation inhibition assay, crystal violet staining; type: cell-based, Pseudomonas aeruginosa PAO1; settings: 6 h
Procedure: as §1
For the biofilm inhibition assay, various treatment formulations were added to the 24-well microtiter plates simultaneously as cell culture media placement. The plates were incubated on an orbital shaker at 180 rpm for 6 h incubation at 37° C. For this 6 h biofilm dispersal assay, the plates were incubated on an orbital shaker at 180 rpm for 6 h at 37° C. for biofilm formation. Planktonic bacteria were removed, and 1 mL of fresh M9 minimal medium was added to each well, followed by each treatment addition. The plates were incubated for a further 2.5-3 h before quantifying the biofilm biomass and viabilities of biofilm bacteria.
as §2

[4] = tested on: P. aeruginosa biofilm bacteria; test: Biofilm bacteria viability by CFU counting (drop-plate method); type: cell-based, Pseudomonas aeruginosa PAO1; settings: FIG. 8; single component alone (AMK 4 or 8 μg/mL, nitroxide 2 mM, phage 10^6 PFU/mL); 2 h treatment
Procedure: The cells in the treated and untreated groups were counted using the drop-plated method to determine the biofilm bacteria viability. Biofilms on the surface of the wells were rinsed with once 1 mL PBS and then were resuspended in 1 mL PBS. The 24-well plates were placed in an ultrasonication bath for 5 min before viable cells count assay. The re-suspended biofilm bacteria were serially diluted 10-fold (10^−1 to 10^−10) in PBS, and 10 μL of each dilution was dropped onto MH agar plates in duplicate, which were incubated at 37° C. overnight. The results are presented as CFU mL^−1. A graph illustrating the effects of different POEGA-b-PVBA conjugated formulations on biofilm cell survival are shown in FIG. 8.
as §3

[5] = tested on: P. aeruginosa biofilms; test: Confocal microscopy of LIVE/DEAD stained biofilms; type: cell-based, Pseudomonas aeruginosa; settings: nitroxide at 2 mM; LIVE/DEAD staining, FIG. 9
Procedure: For microscopy analysis, P. aeruginosa biofilms were grown in glass-bottom 24-well plates (MatTek Corporation, Ashland MA, USA) for 6 h. After 3 h treatment, biofilms were rinsed twice with PBS before being stained with LIVE/DEAD® BacLight™ bacterial viability kit reagents (L-7007, Molecular Probes) according to the manufacturer's procedure. According to the manufacturer's procedure, 1 to 10 dilution of each of the two components was freshly prepared with PBS. 0.3 mL of the mixed solution was added to each well for 20 min incubation, and the plate was kept in the dark condition. The samples were analysed using confocal laser scanning microscopy (CLSM) with a Nikon A1 confocal microscope. Representative confocal images showing P. aeruginosa biofilms treated with POEGA-b-PVBA conjugated formulations are shown in FIG. 9.

MIC ([1]; Pseudomonas aeruginosa, PAO1, MH broth, read-out: MIC): 4 µg/mL
SMILES: NCC[C@H](O)C(=O)N[C@@H]1C[C@H](N)[C@@H](O[C@H]2O[C@H](CN)[C@@H](O)[C@H](O)[C@H]2O)[C@H](O)[C@H]1O[C@H]1O[C@H](CO)[C@@H](O)[C@H](N)[C@H]1O [AMK, amikacin]
reduction of biofilm biomass of pre-established P. aeruginosa biofilm ([2]; AMK alone at 32 μg mL^−1, 8×MIC, 6 h biofilm, 2 h treatment): 10%
effect on biofilm dispersal ([2]; cotreatment study FIG. 7, AMK 4 or 8 μg/ml, phage 10^6 PFU mL^−1, 6 h biofilm, 2 h treatment): did not have an effect
effect on inhibiting the formation of biofilms ([3]; AMK at a higher concentration than 4 μg mL^−1): strong effect
concentration at which biofilm formation was inhibited ([3]; added with inoculated culture): 4 µg/mL
survival of biofilm bacteria [4]: did not affect

SMILES: CC1(C)CC(N)CC(C)(C)N1[O] [nitroxide, 4-amino-2,2,6,6-tetramethyl-piperidinyloxyl]
MIC ([1]; MH broth): 6 mM
P. aeruginosa biofilm dispersal ([2]; comparative example, FIG. 13A, printed: nitroxide agent alone at AMK concentration of 8 μg/mL): about 30%
reduction of biofilm biomass ([2]; cotreatment study FIG. 7, nitroxide 2 mM, phage 10^6 PFU mL^−1, AMK 4 and 8 μg mL^−1, POEGA-b-PVBA linker, 2 h treatment): about 30%
P. aeruginosa biofilm dispersal ([2]; nitroxide alone at 2 mM, 6 h biofilm, 2 h treatment): 30%
P. aeruginosa biofilm dispersal ([2]; nitroxide alone at 5 mM, 6 h biofilm, 2 h treatment): 70%
inhibition of biofilm formation ([3]; nitroxide concentration range of 1 to 5 mM): significantly inhibited biofilm formation
survival of biofilm bacteria [4]: did not affect
biofilm biovolume, confocal [5]: greatly reduced biofilm biovolume

From patent US20250032636A1, “Phage-Drug Conjugate” (The University of Sydney, priority 2021, published 2025)
